# In ChEMBL document CHEMBL1201862, “PubChem BioAssay data set” (2004):
#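 Compound exposure: 48 hours, 5 concentrations, 96-well plates. Here, GI50 denotes the concentration required for 50% inhibition of growth.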 Activity calls are given as the source filed them. No stated cut-off is given here; in the data, active = GI50 up to about 1.1 µM and inactive = higher.
# Key:
# Experiment in all cases: NCI-60 cell line screen, 48 h
# DLD-1 = system: DLD-1
# HCT-116 = system: HCT-116
# NCI-H23 = system: NCI-H23
# U-251 = system: U-251
# KM-20L2 = system: KM-20L2
# CAKI-1 = system: CAKI-1
# 786-0 = system: 786-0
# A549 = system: A549
# A498 = system: A498
# RPMI-8226 = system: RPMI-8226
# OVCAR-3 = system: OVCAR-3
# SF-268 = system: SF-268
# HT-29 = system: HT-29
# OVCAR-5 = system: OVCAR-5
# IGROV-1 = system: IGROV-1
# SK-MEL-2 = system: SK-MEL-2
# SNB-19 = system: SNB-19
# SF-539 = system: SF-539
# LXFL 529 = system: LXFL 529
# SN12C = system: SN12C
# SK-MEL-5 = system: SK-MEL-5
# UACC-62 = system: UACC-62
# LOX IMVI = system: LOX IMVI
# KM12 = system: KM12
# COLO 205 = system: COLO 205
# SW-620 = system: SW-620
# UO-31 = system: UO-31
# HCC 2998 = system: HCC 2998
# DMS-273 = system: DMS-273
# SF-295 = system: SF-295
# MOLT-4 = system: MOLT-4
# HOP-92 = system: HOP-92
# XF498 = system: XF498
# NCI-H460 = system: NCI-H460
# SK-OV-3 = system: SK-OV-3
# HCT-15 = system: HCT-15
# Malme-3M = system: Malme-3M
# K562 = system: K562
# HOP-18 = system: HOP-18
# M19-MEL = system: M19-MEL
# RXF 393 = system: RXF 393
# M14 = system: M14
# OVCAR-8 = system: OVCAR-8
# DMS-114 = system: DMS-114
# HOP-62 = system: HOP-62
# OVCAR-4 = system: OVCAR-4
# TK-10 = system: TK-10
# EKVX = system: EKVX
# ACHN = system: ACHN
# HL-60 = system: HL-60
# CCRF-CEM = system: CCRF-CEM
# UACC-257 = system: UACC-257
# SNB-75 = system: SNB-75
# SNB-78 = system: SNB-78
# NCI-H226 = system: NCI-H226
# SK-MEL-28 = system: SK-MEL-28
# NCI-H522 = system: NCI-H522
structure (smiles),measurement,setting,value
CCCCCCCCCCCCCC(=O)OC1C(CO)OC(=O)C1O (centres undefined),GI50,DLD-1,> 100 µM (inactive)
same,GI50,HCT-116,> 100 µM (inactive)
same,GI50,NCI-H23,> 100 µM (inactive)
same,GI50,U-251,82.8 µM (inactive)
same,GI50,KM-20L2,> 100 µM (inactive)
same,GI50,CAKI-1,> 100 µM (inactive)
same,GI50,786-0,> 100 µM (inactive)
same,GI50,A549,> 100 µM (inactive)
same,GI50,A498,> 100 µM (inactive)
same,GI50,RPMI-8226,> 100 µM (inactive)
same,GI50,OVCAR-3,> 100 µM (inactive)
same,GI50,SF-268,> 100 µM (inactive)
same,GI50,HT-29,> 100 µM (inactive)
same,GI50,OVCAR-5,> 100 µM (inactive)
same,GI50,IGROV-1,> 100 µM (inactive)
same,GI50,SK-MEL-2,> 100 µM (inactive)
same,GI50,SNB-19,71.4 µM (inactive)
same,GI50,SF-539,> 100 µM (inactive)
same,GI50,LXFL 529,> 100 µM (inactive)
same,GI50,SN12C,> 100 µM (inactive)
same,GI50,SK-MEL-5,> 100 µM (inactive)
same,GI50,UACC-62,> 100 µM (inactive)
same,GI50,LOX IMVI,> 100 µM (inactive)
same,GI50,KM12,> 100 µM (inactive)
same,GI50,COLO 205,> 100 µM (inactive)
same,GI50,SW-620,> 100 µM (inactive)
same,GI50,UO-31,51.8 µM (inactive)
same,GI50,HCC 2998,> 100 µM (inactive)
same,GI50,DMS-273,> 100 µM (inactive)
same,GI50,SF-295,58.3 µM (inactive)
same,GI50,MOLT-4,> 100 µM (inactive)
same,GI50,HOP-92,26.7 µM (inactive)
same,GI50,XF498,> 100 µM (inactive)
same,GI50,NCI-H460,> 100 µM (inactive)
same,GI50,SK-OV-3,> 100 µM (inactive)
same,GI50,HCT-15,> 100 µM
same,GI50,Malme-3M,> 100 µM (inactive)
same,GI50,K562,34.7 µM (inactive)
same,GI50,HOP-18,> 100 µM (inactive)
same,GI50,M19-MEL,> 100 µM (inactive)
same,GI50,RXF 393,> 100 µM (inactive)
same,GI50,M14,> 100 µM (inactive)
same,GI50,OVCAR-8,> 100 µM (inactive)
same,GI50,DMS-114,> 100 µM (inactive)
same,GI50,HOP-62,> 100 µM (inactive)
same,GI50,OVCAR-4,> 100 µM (inactive)
same,GI50,TK-10,> 100 µM (inactive)
same,GI50,EKVX,> 100 µM (inactive)
same,GI50,ACHN,> 100 µM (inactive)
same,GI50,HL-60,34.3 µM (inactive)
same,GI50,CCRF-CEM,89.9 µM (inactive)
same,GI50,UACC-257,> 100 µM (inactive)
same,GI50,SNB-75,> 100 µM (inactive)
same,GI50,SNB-78,> 100 µM (inactive)
CC(C)=CC(=O)N(C)C1C2CN3CCC(O2)C13 (centres undefined),GI50,DLD-1,> 100 µM (inactive)
same,GI50,HCT-116,> 100 µM (inactive)
same,GI50,NCI-H23,> 100 µM (inactive)
same,GI50,U-251,> 100 µM (inactive)
same,GI50,KM-20L2,> 100 µM (inactive)
same,GI50,NCI-H226,> 100 µM (inactive)
same,GI50,CAKI-1,> 100 µM (inactive)
same,GI50,786-0,> 100 µM (inactive)
same,GI50,A549,> 100 µM (inactive)
same,GI50,A498,> 100 µM (inactive)
same,GI50,OVCAR-3,> 100 µM (inactive)
same,GI50,SF-268,> 100 µM (inactive)
same,GI50,HT-29,> 100 µM (inactive)
same,GI50,OVCAR-5,> 100 µM (inactive)
same,GI50,IGROV-1,> 100 µM (inactive)
same,GI50,SK-MEL-2,> 100 µM (inactive)
same,GI50,SNB-19,> 100 µM (inactive)
same,GI50,SF-539,> 100 µM (inactive)
same,GI50,LXFL 529,> 100 µM (inactive)
same,GI50,SN12C,> 100 µM (inactive)
same,GI50,SK-MEL-28,> 100 µM (inactive)
same,GI50,SK-MEL-5,> 100 µM (inactive)
same,GI50,UACC-62,> 100 µM (inactive)
same,GI50,LOX IMVI,> 100 µM (inactive)
same,GI50,KM12,> 100 µM (inactive)
same,GI50,COLO 205,> 100 µM (inactive)
same,GI50,SW-620,> 100 µM (inactive)
same,GI50,UO-31,> 100 µM (inactive)
same,GI50,HCC 2998,> 100 µM (inactive)
same,GI50,DMS-273,> 100 µM (inactive)
same,GI50,SF-295,> 100 µM (inactive)
same,GI50,MOLT-4,> 100 µM (inactive)
same,GI50,XF498,> 100 µM (inactive)
same,GI50,NCI-H460,> 100 µM (inactive)
same,GI50,SK-OV-3,> 100 µM (inactive)
same,GI50,HCT-15,> 100 µM
same,GI50,Malme-3M,> 100 µM (inactive)
same,GI50,K562,> 100 µM (inactive)
same,GI50,HOP-18,> 100 µM (inactive)
same,GI50,M19-MEL,> 100 µM (inactive)
same,GI50,RXF 393,> 100 µM (inactive)
same,GI50,M14,> 100 µM (inactive)
same,GI50,OVCAR-8,> 100 µM (inactive)
same,GI50,DMS-114,> 100 µM (inactive)
same,GI50,HOP-62,> 100 µM (inactive)
same,GI50,NCI-H522,> 100 µM (inactive)
same,GI50,OVCAR-4,> 100 µM (inactive)
same,GI50,TK-10,> 100 µM (inactive)
same,GI50,EKVX,> 100 µM (inactive)
same,GI50,ACHN,> 100 µM (inactive)
same,GI50,HL-60,> 100 µM (inactive)
same,GI50,CCRF-CEM,> 100 µM (inactive)
same,GI50,UACC-257,> 100 µM (inactive)
same,GI50,SNB-75,> 100 µM (inactive)
same,GI50,SNB-78,> 100 µM (inactive)
